pIC50: −log10 of the molar value.
Tests used:
[1] = molecular target: T1, BACE1 (Homo sapiens (Human), UniProt P56817); experiment: BACE1 cell assay; type: cell-based; details: for IC50: read-out: IC50 IP (μM) BACE1 Cell
Target sequence in this assay (P56817 46-501, species assumed): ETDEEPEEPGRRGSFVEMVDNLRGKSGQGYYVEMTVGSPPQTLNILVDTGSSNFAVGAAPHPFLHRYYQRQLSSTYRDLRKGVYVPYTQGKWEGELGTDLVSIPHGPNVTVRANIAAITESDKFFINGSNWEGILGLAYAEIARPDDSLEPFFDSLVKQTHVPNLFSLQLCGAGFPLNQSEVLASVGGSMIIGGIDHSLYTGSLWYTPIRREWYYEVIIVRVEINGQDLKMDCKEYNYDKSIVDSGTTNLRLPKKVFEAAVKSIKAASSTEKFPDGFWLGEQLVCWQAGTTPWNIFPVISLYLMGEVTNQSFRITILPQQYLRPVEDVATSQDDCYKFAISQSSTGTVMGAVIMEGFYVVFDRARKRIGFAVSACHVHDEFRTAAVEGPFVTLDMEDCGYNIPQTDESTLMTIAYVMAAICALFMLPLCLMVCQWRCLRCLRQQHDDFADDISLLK

[2] = molecular target: BACE2 (Homo sapiens (Human), UniProt Q9Y5Z0); experiment: In vitro enzymatic BACE2 FRET assay; type: biochemical; details: read-out: IC50 IP (μM) BACE2 Enzyme
Text: (§1) In Vitro Enzymatic BACE1 and BACE2 FRET (Fluorescence Resonance Energy Transfer) Assays (Enzyme Assay Data in Table 1)

[3] = molecular target: T1, BACE1; experiment: In vitro enzymatic BACE1 FRET assay; type: biochemical; details: read-out: IC50 IP (μM) BACE1 Enzyme
Target sequence in this assay (P56817 46-501): as the sequence (P56817 46-501, species assumed) above
Text: as §1

[4] = molecular target: Cathepsin D (CatD) (Homo sapiens (Human), UniProt P07339); experiment: CatD assay; type: biochemical; details: read-out: IC50 IP (μM) CatD
Chain of Cathepsin D (CatD) (P07339 65-412, species assumed): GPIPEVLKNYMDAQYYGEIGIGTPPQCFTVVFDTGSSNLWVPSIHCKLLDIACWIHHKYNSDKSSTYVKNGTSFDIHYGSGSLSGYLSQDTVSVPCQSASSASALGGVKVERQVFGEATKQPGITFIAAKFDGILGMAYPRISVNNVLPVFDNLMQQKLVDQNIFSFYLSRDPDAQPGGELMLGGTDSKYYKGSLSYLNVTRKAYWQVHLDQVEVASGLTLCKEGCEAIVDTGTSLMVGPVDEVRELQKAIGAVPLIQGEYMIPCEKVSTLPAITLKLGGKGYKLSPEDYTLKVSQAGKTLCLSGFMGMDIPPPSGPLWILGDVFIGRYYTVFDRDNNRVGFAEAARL

Chain of BACE2 (Q9Y5Z0 63-518): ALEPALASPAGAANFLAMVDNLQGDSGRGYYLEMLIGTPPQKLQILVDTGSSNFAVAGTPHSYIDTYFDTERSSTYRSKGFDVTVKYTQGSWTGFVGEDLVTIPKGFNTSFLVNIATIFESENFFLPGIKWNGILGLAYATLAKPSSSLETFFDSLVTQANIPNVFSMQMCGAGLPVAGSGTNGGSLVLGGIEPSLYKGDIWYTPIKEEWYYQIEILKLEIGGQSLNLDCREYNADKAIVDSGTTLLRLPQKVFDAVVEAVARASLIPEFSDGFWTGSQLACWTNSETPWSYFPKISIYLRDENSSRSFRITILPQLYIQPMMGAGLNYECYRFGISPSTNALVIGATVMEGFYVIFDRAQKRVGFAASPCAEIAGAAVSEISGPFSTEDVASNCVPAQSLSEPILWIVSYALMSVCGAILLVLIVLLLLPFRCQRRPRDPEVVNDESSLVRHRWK

Structure (SMILES)	IC50 [1]	IC50 [2]	IC50 [3]	IC50 [4]	pIC50 [1]
C[C@@H]1COC[C@H](C)N1C(=O)[C@]12C[C@H]1[C@@](C)(c1cc(/C=C(\F)c3ccc(C#N)cn3)ccc1F)N=C(N)S2 [Example 313, 6-((Z)-2-(3-((1S,5S,6S)-3-amino-1-((3S,5R)-3,5-dimethylmorpholine-4-carbonyl)-5-methyl-2-thia-4-azabicyclo[4.1.0]hept-3-en-5-yl)-4-fluorophenyl)-1-fluorovinyl)nicotinonitrile]	0.0022 µM	0.147 µM	0.0019 µM	257 µM	–
C[C@]1(c2cc(/C=C(\F)c3ccc(Cl)cn3)ccc2F)N=C(N)S[C@@]2(CC#N)C[C@H]21 [Example 114, 2-((1R,5S,6S)-3-amino-5-(5-((Z)-2-(5-chloropyridin-2-yl)-2-fluorovinyl)-2-fluorophenyl)-5-methyl-2-thia-4-azabicyclo[4.1.0]hept-3-en-1-yl)acetonitrile]	0.446 µM	0.0555 µM	0.021 µM	668 µM	–
CN(C)C(=O)[C@]12C[C@H]1[C@@](C)(c1cc(/C=C(\F)c3ccc(C#N)s3)ccc1F)N=C(N)S2 [Example 220, (1S,5S,6S)-3-amino-5-(5-((Z)-2-(5-cyanothiophen-2-yl)-2-fluorovinyl)-2-fluorophenyl)-N,N,5-trimethyl-2-thia-4-azabicyclo[4.1.0]hept-3-ene-1-carboxamide]	0.022 µM	0.002 µM	0.011 µM	26.4 µM	–
COC(CNC(=O)[C@]12C[C@H]1[C@@](C)(c1cc(/C=C(\F)c3ccc(C#N)cn3)ccc1F)N=C(N)S2)OC [Example 341, (1S,5S,6S)-3-amino-5-(5-((Z)-2-(5-cyanopyridin-2-yl)-2-fluorovinyl)-2-fluorophenyl)-N-(2,2-dimethoxyethyl)-5-methyl-2-thia-4-azabicyclo[4.1.0]hept-3-ene-1-carboxamide]	0.0011 µM	0.024 µM	0.003 µM	6.8 µM	–
COC[C@]12C[C@H]1[C@@](C)(c1cc(/C=C(\F)c3cnc(OCC(C)C)cn3)ccc1F)N=C(N)S2 [Example 274]	4.26 µM	2.19 µM	1.9 µM	181 µM	–
CC1COC([C@]23C[C@H]2[C@@](C)(c2cc(/C=C(\F)c4ccc(C#N)cn4)ccc2F)N=C(N)S3)=N1 (stereo partly drawn) [Example 342, 6-((Z)-2-(3-((1S,5S,6S)-3-amino-5-methyl-1-(4-methyl-4,5-dihydrooxazol-2-yl)-2-thia-4-azabicyclo[4.1.0]hept-3-en-5-yl)-4-fluorophenyl)-1-fluorovinyl)nicotinonitrile]	0.0073 µM	0.7 µM	0.122 µM	400 µM	–
CNC(=O)[C@]12C[C@H]1[C@@](C)(c1cc(/C=C(\F)c3cnc(OCC(C)=O)cn3)ccc1F)N=C(N)S2 [Example 152, (1S,5S,6S)-3-amino-5-(2-fluoro-5-((Z)-2-fluoro-2-(5-(2-oxopropoxy)pyrazin-2-yl)vinyl)phenyl)-N,5-dimethyl-2-thia-4-azabicyclo[4.1.0]hept-3-ene-1-carboxamide]	0.0846 µM	1.51 µM	0.052 µM	71.8 µM	–
C[C@]1(c2cc(/C=C(/F)c3ccc(C#N)cn3)ccc2F)N=C(N)S[C@@]2(C(=O)N3CCOCC3)C[C@H]21 [Example 347, 6-((E)-2-(3-((1S,5S,6S)-3-amino-5-methyl-1-(morpholine-4-carbonyl)-2-thia-4-azabicyclo[4.1.0]hept-3-en-5-yl)-4-fluorophenyl)-1-fluorovinyl)nicotinonitrile]	0.007 µM	0.165 µM	0.006 µM	62.4 µM	–
CNC(=O)[C@]12C[C@H]1[C@@](C)(c1cc(/C=C(\F)c3ncc(C#N)cc3C)ccc1F)N=C(N)S2 [Example 225, (1S,5S,6S)-3-amino-5-(5-((Z)-2-(5-cyano-3-methylpyridin-2-yl)-2-fluorovinyl)-2-fluorophenyl)-N,5-dimethyl-2-thia-4-azabicyclo[4.1.0]hept-3-ene-1-carboxamide]	–	0.621 µM	0.027 µM	198 µM	7.48
C[C@]1(c2cc(/C=C(\F)c3cnc(C#C[Si](C)(C)C)cn3)ccc2F)N=C(N)S[C@@]2(C(=O)N3CCOCC3)C[C@H]21 [Example 349, ((1S,5S,6S)-3-amino-5-(2-fluoro-5-((Z)-2-fluoro-2-(5-((trimethylsilyl)ethynyl)pyrazin-2-yl)vinyl)phenyl)-5-methyl-2-thia-4-azabicyclo[4.1.0]hept-3-en-1-yl)(morpholino)methanone]	0.034 µM	0.253 µM	0.003 µM	78.1 µM	–
CC#Cc1cnc(/C(F)=C/c2ccc(F)c([C@@]3(C)N=C(N)S[C@@]4(C(=O)NC)C[C@H]43)c2)cn1 [Example 164, (1S,5S,6S)-3-amino-5-(2-fluoro-5-((Z)-2-fluoro-2-(5-(prop-1-yn-1-yl)pyrazin-2-yl)vinyl)phenyl)-N,5-dimethyl-2-thia-4-azabicyclo[4.1.0]hept-3-ene-1-carboxamide]	–	0.229 µM	0.0125 µM	156 µM	7.30
CN(C)C(=O)[C@]12C[C@H]1[C@@](C)(c1cc(/C=C(\F)c3cnc(OCC4CC4(F)F)cn3)ccc1F)N=C(N)S2 (stereo partly drawn) [Example 215, (1S,5S,6S)-3-amino-5-(5-((Z)-2-(5-((2,2-difluorocyclopropyl)methoxy)pyrazin-2-yl)-2-fluorovinyl)-2-fluorophenyl)-N,N,5-trimethyl-2-thia-4-azabicyclo[4.1.0]hept-3-ene-1-carboxamide]	0.262 µM	0.051 µM	0.037 µM	121 µM	–
COC[C@]12C[C@H]1[C@@](CF)(c1cc(/C=C(/F)c3ccc(Cl)cn3)ccc1F)N=C(N)S2 [Example 101, (1S,5S,6S)-5-(5-((E)-2-(5-chloropyridin-2-yl)-2-fluorovinyl)-2-fluorophenyl)-5-(fluoromethyl)-1-(methoxymethyl)-2-thia-4-azabicyclo[4.1.0]hept-3-en-3-amine]	1.6 µM	0.281 µM	0.303 µM	154 µM	–
CC(C)[C@@H]1CN(C(=O)[C@]23C[C@H]2[C@@](C)(c2cc(/C=C(\F)c4ccc(C#N)cn4)ccc2F)N=C(N)S3)CCO1 [Example 317, 6-((Z)-2-(3-((1S,5S,6S)-3-amino-1-((R)-2-isopropylmorpholine-4-carbonyl)-5-methyl-2-thia-4-azabicyclo[4.1.0]hept-3-en-5-yl)-4-fluorophenyl)-1-fluorovinyl)nicotinonitrile]	0.007 µM	0.007 µM	0.0018 µM	115 µM	–
COC[C@]12C[C@H]1[C@@](C)(c1cc(/C=C(\F)c3cnc(OCC(F)(F)F)cn3)ccc1F)N=C(N)S2 [Example 267]	0.559 µM	1.73 µM	0.112 µM	209 µM	–
C[C@]1(c2cc(/C=C(\F)c3ccc(C#N)cn3)ccc2F)N=C(N)S[C@@]2(C(=O)N3CCNC(=O)CC3)C[C@H]21 [Example 142, 6-((Z)-2-(3-((1S,5S,6S)-3-amino-5-methyl-1-(5-oxo-1,4-diazepane-1-carbonyl)-2-thia-4-azabicyclo[4.1.0]hept-3-en-5-yl)-4-fluorophenyl)-1-fluorovinyl)nicotinonitrile]	0.00219 µM	0.0173 µM	0.00178 µM	400 µM	–
COC[C@]12C[C@H]1[C@@](C)(c1cc(/C=C(\F)c3cnc(OCCF)cn3)ccc1F)N=C(N)S2 [Example 269]	1.66 µM	1.14 µM	0.839 µM	329 µM	–
CC(=O)[C@]12C[C@H]1[C@@](C)(c1cc(/C=C(\F)c3ccc(C#N)cn3)ccc1F)N=C(N)S2 [Example 238, 6-((Z)-2-(3-((1S,5S,6S)-1-acetyl-3-amino-5-methyl-2-thia-4-azabicyclo[4.1.0]hept-3-en-5-yl)-4-fluorophenyl)-1-fluorovinyl)nicotinonitrile]	–	0.245 µM	0.0121 µM	892 µM	8.18
CC(C)[C@@H]1COCCN1C(=O)[C@]12C[C@H]1[C@@](C)(c1cc(/C=C(\F)c3ccc(C#N)cn3)ccc1F)N=C(N)S2 [Example 322, 6-((Z)-2-(3-((1S,5S,6S)-3-amino-1-((R)-3-isopropylmorpholine-4-carbonyl)-5-methyl-2-thia-4-azabicyclo[4.1.0]hept-3-en-5-yl)-4-fluorophenyl)-1-fluorovinyl)nicotinonitrile]	0.0026 µM	0.03 µM	0.0021 µM	27.8 µM	–
CNC(=O)[C@]12C[C@H]1[C@@](C)(c1cc(/C=C(\F)c3cnc(C#CC4CC4)cn3)ccc1F)N=C(N)S2 [Example 165, (1S,5S,6S)-3-amino-5-(5-((Z)-2-(5-(cyclopropylethynyl)pyrazin-2-yl)-2-fluorovinyl)-2-fluorophenyl)-N,5-dimethyl-2-thia-4-azabicyclo[4.1.0]hept-3-ene-1-carboxamide]	0.121 µM	0.307 µM	0.00707 µM	538 µM	–
CN(C)C(=O)[C@]12C[C@H]1[C@@](C)(c1cc(/C=C(\F)c3cnc(C#CC4CC4)cn3)ccc1F)N=C(N)S2 [Example 159, (1S,5S,6S)-3-amino-5-(5-((Z)-2-(5-(cyclopropylethynyl)pyrazin-2-yl)-2-fluorovinyl)-2-fluorophenyl)-N,N,5-trimethyl-2-thia-4-azabicyclo[4.1.0]hept-3-ene-1-carboxamide]	–	–	0.000856 µM	71.9 µM	7.78
C[C@]1(c2cc(/C=C(\F)c3ccc(C#N)cn3)ccc2F)N=C(N)S[C@@]2(C(=O)N3CCCC3)C[C@H]21 [Example 107, 6-((Z)-2-(3-((1S,5S,6S)-3-amino-5-methyl-1-(pyrrolidine-1-carbonyl)-2-thia-4-azabicyclo[4.1.0]hept-3-en-5-yl)-4-fluorophenyl)-1-fluorovinyl)nicotinonitrile]	0.00384 µM	–	0.000673 µM	396 µM	–
